The source of these data is patent publication US12275729B2 (Merck Sharp & Dohme LLC, priority 2017, dated 2025).

What is called IC50 is the point on the concentration scale where inhibition reaches its midpoint.

Counter-ions that a name gives are not always drawn.

Assay [1] has as its target T1, IDO1 (Homo sapiens, UniProt P14902). As to the kind of experiment: IDO1 Cellular Assay in HeLa Cells Stimulated with IFNγ. It is filed as cell-based. As to conditions: read-out: Hela IC50.
Assay [2] deals with T1, IDO1. As to the kind of experiment: IDO1 Human Whole Blood Assay. On the set-up: Human whole blood was drawn in sodium heparin coated tubes from healthy internal donors; from tissue; host or cells: human whole blood from healthy donors, stimulated with LPS and IFNγ. As to conditions: LPS and IFNγ stimulated. The assay is classed as cell-based. On the procedure: IDO1 Human Whole Blood Assay
Compounds to be tested were serially diluted in ten 3-fold steps in DMSO starting from 10 mM. […] LPS and IFNγ was prepared in RPMI to a 10× of final conc. (1000 ng/mL), final concentration is 100 ng/mL.
Human whole blood was drawn in sodium heparin coated tubes from healthy internal donors. 240 μL of blood was transferred to each of the wells of a v-bottom 96 well plate. 30 μL of compound was transferred from intermediate dilution plate, and incubated for 15 min. 30 μL from stimulants was then transferred to blood and mixed thoroughly.
On day 2 isotope labeled standard of kynurenine and tryptophan was made in water at 1Ox concentration and 30 μL was added to the blood at […] final concentration. The assay plates were centrifuged at 300×G for 10 min with no brake to separate plasma from red blood cells. 60 μL of plasma samples was removed without disturbing red blood cells. Plasma was diluted with RPMI in 1:1 ratio and proteins were precipitated out with two volume of Acetonitrile. The plates were centrifuged at 4000×G for 60 min. 20 μL of supernatant was carefully transferred to a 384 well plate contain 40 μL of 0.1% formic acid in water and analyzed by LC/MS/MS.
LC/MS/MS analyses were performed using Thermo Fisher's LX4-TSQ Quantum Ultra system. This system consists of four Agilent binary high-performance liquid chromatography (HPLC) pumps and a TSQ Quantum Ultra triple quadrupole MS/MS instrument. For each sample, 5 μL were injected onto an Atlantis T3 column (2.1 mm×150 mm, […] particle size) from Waters. The mobile phase gradient pumped at 0.8 mL/min was used to elute the analytes from the column at 25° C. […] Mobile phase A consisted of 0.1% formic acid in water. Mobile phase B consisted of 0.1% of formic acid in acetonitrile. Data was acquired in positive mode using a HESI interface. The operational parameters for the TSQ Quantum Ultra instrument were a spray voltage of 4000 V, capillary temperature of 380° C., vaporizer temperature 400° C., shealth gas 60 arbitrary units, Aux gas 20 arbitrary units, tube lens 85 and collision gas 1.2 mTorr. […] The peak area was integrated by Xcalibur Quan software. The ratios between the kynurenine generated in the reaction and 2D6-Kynurenine spiked-in internal standard were used to generate percentage inhibition and IC50 values.

T1 sequence (P14902 whole entry): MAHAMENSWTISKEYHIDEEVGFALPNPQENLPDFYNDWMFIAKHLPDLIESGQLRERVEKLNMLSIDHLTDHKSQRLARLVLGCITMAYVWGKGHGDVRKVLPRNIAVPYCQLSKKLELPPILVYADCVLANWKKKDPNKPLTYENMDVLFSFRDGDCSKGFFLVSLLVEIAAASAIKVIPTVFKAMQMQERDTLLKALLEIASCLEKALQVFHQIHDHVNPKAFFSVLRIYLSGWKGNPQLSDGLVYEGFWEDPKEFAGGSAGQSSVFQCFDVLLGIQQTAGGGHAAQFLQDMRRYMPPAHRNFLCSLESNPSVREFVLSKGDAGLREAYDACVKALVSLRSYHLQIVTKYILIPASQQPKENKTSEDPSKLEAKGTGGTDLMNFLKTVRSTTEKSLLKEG

For `Cc1nccc(N2CC(F)Cc3cc(C4(NC(=O)c5ccc(Cl)cc5)CC4)ccc32)n1` (racemic) [Example 437, 4-chloro-N-(1-(3-fluoro-1-(2-methylpyrimidin-4-yl)-1,2,3,4-tetrahydroquinolin-6-yl)cyclopropyl)benzamide, 2,2,2-trifluoroacetate salt], the figures for the 50% inhibitory concentration (IC50) at IDO1 [1] and against IDO1 [2] were 1.82 nM and 16 nM, respectively.
Take `Cc1nc(C(=O)N2CCCc3cc(C4(C(=O)Nc5ccc(F)cc5)CCC4)ccc32)no1` [Example 100, N-(4-fluorophenyl)-1-[1-(5-methyl-1,2,4-oxadiazole-3-carbonyl)-1,2,3,4-tetrahydroquinolin-6-yl]cyclobutane-1-carboxamide]: the IC50 on IDO1 [1] (about 48 hours) came out at 1.2 nM; against IDO1 [2] it was 90 nM.
Take `Cc1nccc(N2CCCc3nc(C4(C(=O)Nc5ccc(F)cc5)CC(F)C4)ccc32)n1` (stereo not drawn) [Example 419, 2-(3-fluoro-1-((4-fluorophenyl)carbamoyl)cyclobutyl)-5-(2-methylpyrimidin-4-yl)-5,6,7,8-tetrahydro-1,5-naphthyridin-1-ium 2,2,2-trifluoroacetate]: the 50% inhibitory concentration (IC50) on IDO1 [1] stood at 1.09 nM; at IDO1 [1] (value in running text) it was 1 nM; against IDO1 [2] it was 69 nM.
For `O=C(Nc1ccc(Cl)cc1)C1(c2ccc3c(n2)CCCN3c2ccnc(C(F)(F)F)n2)COC1` [Example 396, N-(4-chlorophenyl)-3-(5-(2-(trifluoromethyl)pyrimidin-4-yl)-5,6,7,8-tetrahydro-1,5-naphthyridin-2-yl)oxetane-3-carboxamide], the concentration for half-maximal inhibition (IC50) at IDO1 [1] (about 48 hours) turned out to be 1.82 nM; against IDO1 [2] it was 27 nM.
The matching figures for `CC(C(=O)Nc1ccc(F)cc1)c1ccc2c(c1)CCCN2C(=O)C1CC1(F)F` (stereo not drawn) [Example 67, 2-[1-(2,2-difluorocyclopropane-1-carbonyl)-1,2,3,4-tetrahydroquinolin-6-yl]-N-(4-fluorophenyl)propanamide]: 4.1 nM and 150 nM.
The matching figures for `Cc1ccnc(C(=O)N2CCCc3nc(C4(C(=O)Nc5ccc(Cl)cc5)COC4)ccc32)n1` [Example 399, N-(4-chlorophenyl)-3-(5-(4-methylpyrimidine-2-carbonyl)-5,6,7,8-tetrahydro-1,5-naphthyridin-2-yl)oxetane-3-carboxamide]: 1.72 nM and 13 nM.
For `CCc1ccnc(C(=O)N2CCCc3nc(C(C)NC(=O)c4ccc(Cl)cc4)ccc32)c1` (stereo not drawn) [Example 286, 4-chloro-N-(1-(5-(4-ethylpicolinoyl)-5,6,7,8-tetrahydro-1,5-naphthyridin-2-yl)ethyl)benzamide], the IC50 at IDO1 [1] (about 48 hours) was 1.2 nM; on IDO1 [2], 89 nM.
The matching figures for `C[C@@H](C(=O)Nc1ccc(Cl)cc1)c1ccc2c(c1)CCCN2C(=O)c1cccc(Cl)c1` (single isomer, unassigned) [Example 57]: 2.3 nM and 51 nM.
The matching figures for `CC(NC(=O)c1ccc(F)cc1)c1ccc2c(c1)CCCN2C(CO)c1cccc(Cl)c1` (single isomer, unassigned) [Example 92]: 6 nM and 378 nM.
The matching figures for `O=C(C1COC1)N1CCCc2cc(C3(C(=O)Nc4ccc(F)cc4)CCC3)ccc21` [Example 115, N-(4-fluorophenyl)-1-[1-(oxetane-3-carbonyl)-1,2,3,4-tetrahydroquinolin-6-yl]cyclobutane-1-carboxamide]: 20 nM and 480 nM.
`Cc1cccc(N2CCCc3nc(C4(C(=O)Nc5ccc(Cl)cc5)CCC4)ccc32)n1` [Example 404, N-(4-chlorophenyl)-1-(5-(6-methylpyridin-2-yl)-5,6,7,8-tetrahydro-1,5-naphthyridin-2-yl)cyclobutane-1-carboxamide]: the figures for the IC50 at IDO1 [1] (about 48 hours) and on IDO1 [2] were 3.3 nM and 20 nM, respectively.
The matching figures for `CC(NC(=O)c1ccc(F)cc1)c1ccc2c(n1)CCCN2C(=O)c1c(Cl)cccc1Cl` (stereo not drawn) [Example 150, N-{1-[5-(2,6-dichlorobenzene-1-carbonyl)-5,6,7,8-tetrahydro-1,5-naphthyridin-2-yl]ethyl}-4-fluorobenzamide]: 7.3 nM and 1140 nM.
For `CC(NC(=O)c1ccc(F)cc1)c1ccc2c(c1)CCCN2C(CO)c1cccc(Cl)c1` (single isomer, unassigned) [Example 93], the IC50 on IDO1 [1] (about 48 hours) was found to be 5.7 nM; against IDO1 [2] it was 450 nM.
The matching figures for `Cc1nccc(N2CCCc3nc(C(C)NC(=O)c4ccc(Cl)cc4)ccc32)n1` (stereo not drawn) [Example 250, 4-chloro-N-(1-(5-(2-methylpyrimidin-4-yl)-5,6,7,8-tetrahydro-1,5-naphthyridin-2-yl)ethyl)benzamide]: 2 nM and 32 nM.
For `CC(NC(=O)c1ccc(F)cc1)c1ccc2c(n1)CCCN2c1ccn2nccc2n1` (stereo not drawn) [Example 368, 4-fluoro-N-(1-(5-(pyrazolo[1,5-a]pyrimidin-5-yl)-5,6,7,8-tetrahydro-1,5-naphthyridin-2-yl)ethyl)benzamide], the figures for the IC50 on IDO1 [1] and against IDO1 [2] were 18 nM and 16 nM, respectively.
Consider `CC(C(=O)Nc1ccc(Cl)cc1)c1ccc2c(c1)CC(F)CN2C(=O)c1cccc(Cl)c1` (single isomer, unassigned) [Example 256, 2-(1-(3-chlorobenzoyl)-3-fluoro-1,2,3,4-tetrahydroquinolin-6-yl)-N-(4-chlorophenyl)propanamide], for which the IC50 on IDO1 [1] (about 48 hours) stood at 2.37 nM; against IDO1 [2] it was 50 nM.
The matching figures for `O=C([C@@H]1CCCCO1)N1CCCc2cc(C3(C(=O)Nc4ccc(F)cc4)CCC3)ccc21` (single isomer, unassigned) [Example 105]: 1.9 nM and 61 nM.
Consider `Cc1nc(N2CCCc3nc(C(C)NC(=O)c4ccc(Cl)cc4)ccc32)c2ccccc2n1` (stereo not drawn) [Example 357, 2-(1-(4-chlorobenzamido)ethyl)-5-(2-methylquinazolin-4-yl)-5,6,7,8-tetrahydro-1,5-naphthyridin-1-ium 2,2,2-trifluoroacetate], for which the IC50 turned out to be 27.9 nM at IDO1 [1] and 436 nM against IDO1 [2].
Regarding `CC(C(=O)Nc1ccc(F)cc1)c1ccc2c(n1)CCCN2C(=O)C1CCOCC1` (stereo not drawn) [Example 165, N-(4-fluorophenyl)-2-[5-(oxane-4-carbonyl)-5,6,7,8-tetrahydro-1,5-naphthyridin-2-yl]propanamide], the IC50 on IDO1 [1] (about 48 hours) was 2.7 nM; on IDO1 [2] it was 34 nM.
Turning to `CC(C(=O)Nc1ccc(Cl)cc1)c1ccc2c(c1)CCCN2C(=O)c1cccc(Cl)c1` (stereo not drawn) [Example 51, 2-[1-(3-chlorobenzene-1-carbonyl)-1,2,3,4-tetrahydroquinolin-6-yl]-N-(4-chlorophenyl)propanamide], the half-maximal inhibitory concentration (IC50) on IDO1 [1] (about 48 hours) stood at 2 nM; at IDO1 [2], 96 nM.
`O=C(OC1CC1)N1CCCc2nc(C3(C(=O)Nc4ccc(F)cc4)CC4(CC4)C3)ccc21` [Example 417, cyclopropyl 6-(5-((4-fluorophenyl)carbamoyl)spiro[2.3]hexan-5-yl)-3,4-dihydro-1,5-naphthyridine-1(2H)-carboxylate]: the figures for the half-maximal inhibitory concentration (IC50) on IDO1 [1] and at IDO1 [2] were 0.73 nM and 12 nM, respectively.
As to `Cc1cncc(N2CCCc3nc(C4(NC(=O)c5ccc(F)cc5)CC4)ccc32)n1` [Example 296, 4-fluoro-N-(1-(5-(6-methylpyrazin-2-yl)-5,6,7,8-tetrahydro-1,5-naphthyridin-2-yl)cyclopropyl)benzamide], the IC50 at IDO1 [1] (about 48 hours) is 1.51 nM; against IDO1 [2], 163 nM.
The matching figures for `Cc1nccc(N2CCCc3nc(C4(NC(=O)c5ccc(Cl)nc5)CC4)ccc32)n1` [Example 300, 6-chloro-N-(1-(5-(2-methylpyrimidin-4-yl)-5,6,7,8-tetrahydro-1,5-naphthyridin-2-yl)cyclopropyl)nicotinamide]: 1.9 nM and 63 nM.
On to `CC(C(=O)Nc1ccc(F)cc1)c1ccc2c(c1)CCCN2C(=O)c1cccc(Cl)c1` (racemic) [Example 50, 2-[1-(3-chlorobenzene-1-carbonyl)-1,2,3,4-tetrahydroquinolin-6-yl]-N-(4-fluorophenyl)propanamide], for which the values for the IC50 on IDO1 [1] (about 48 hours) and against IDO1 [2] were 2.5 nM and 43 nM, respectively.
For the compound `Cc1ncnc(N2CCCc3nc(C(C)NC(=O)c4ccc(Cl)cc4)ccc32)c1C` (stereo not drawn) [Example 347, 4-chloro-N-(1-(5-(5,6-dimethylpyrimidin-4-yl)-5,6,7,8-tetrahydro-1,5-naphthyridin-2-yl)ethyl)benzamide], the IC50 at IDO1 [1] turned out to be 156 nM; on IDO1 [2] it was 340 nM.
